# Laboratory results published in patent US9499585B2, “Bioactive peptide complexes” (priority 2012, dated 2016).
# No end group written: not given here.
# Experiments:
# [1] = test system: A/Aichi/2/68 (H3N2) flu strain; type: in vivo, white mice
# [2] = Zn^++ ion binding with A1 peptide by light-scattering method; type: physicochemical; conditions: Zn(NO3)2; light scattering at 400 nm; aggregates dissolve on adding EDTA
# From the text: Zn^++ ion binding with alloferon 1 (A1) and its homologs was studied by the method described [Shi Y., Beger R. D., Berg J. M. Metal binding properties of single amino acid deletion mutants of zinc finger peptides: studies using cobalt(II) as a spectroscopic prob. Biophys. J., 1993, Vol. 64, p. 749-753]. Zn^++ ion binding with A1 peptide was studied by the light-scattering method using ISS, Campaign, IL fluorimeter at 400 nm and excitation light 398 nm.
# For analysis conditions refer to Shi Y. et al. (1993)
# A—(open circles) A1 and Zn(N03)2. interaction Excess molar quantity of Zn^++ ion comparing to peptide was 1:10. Firm line—peptide enrichment with Zn^+ ion. Ground peptide mass changed into aggregates with complete enrichment. EDTA was added to aggregates. Subsequent to addition of EDTA the complex quickly dissociated and peptide (alloferon) changed to soluble phase.
# Type I interferons = Type I interferons induction; conditions: FIG. 6
# From the text: Type I interferons induction was studied by the previously published method [F. I. Yershov., O. I. Kiselev. Interferons and their inducers (from the molecule to the drug) M.: Publ. House. Geotar—Media, 2005-P. 356, Chernysh et al. 2002].
Compound,"protective effect ([1]; […], mice observed 15 days)",diameter of polydisperse nanoparticles formed on peptide aggregation with Zn^++ [2],interferon induction activity (Type I interferons),"protective effect (in words) ([1]; mouse, in vivo)"
CC(N)C12CC3CC(CC(C3)C1)C2 (stereo not shown) [Remantadin],80-87%,,,
"HGVSGHGQHGVHG [Alloferon A1, nonmodified base peptide]",,50-60 nm,quite high level of interferon induction ability,comparable to efficiency of the protective effect of reference drug Remantadin
